Source: paper PMC10087438 (The Febs Journal, 2022)
Each block holds one molecule with its values, some of them ahead of it.

Tests used:
[1] = target: T1, PaNADK (NAD kinase from Pseudomonas aeruginosa) (Pseudomonas aeruginosa, UniProt Q9HZC0); assay: X-ray crystal structure, […] Å; assay type: binding
T1 sequence (Q9HZC0 1-295): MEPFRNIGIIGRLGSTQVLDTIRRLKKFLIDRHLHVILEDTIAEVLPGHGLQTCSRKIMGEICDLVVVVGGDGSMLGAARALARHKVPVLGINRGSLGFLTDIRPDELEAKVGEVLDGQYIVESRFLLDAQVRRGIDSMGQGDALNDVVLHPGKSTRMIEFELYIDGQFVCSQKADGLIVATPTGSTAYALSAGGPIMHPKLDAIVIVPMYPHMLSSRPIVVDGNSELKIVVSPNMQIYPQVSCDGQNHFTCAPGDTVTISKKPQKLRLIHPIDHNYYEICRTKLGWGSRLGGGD

[2] = target: T1, PaNADK (NAD kinase from Pseudomonas aeruginosa); assay: G6PDH-coupled enzyme assay, global competitive inhibition fit; assay type: biochemical
[3] = target: T2, LmNADK (NADK 1 from Listeria monocytogenes) (Listeria monocytogenes, UniProt Q8Y8D7); assay: enzyme inhibition; assay type: biochemical
T2 sequence (Q8Y8D7 1-264): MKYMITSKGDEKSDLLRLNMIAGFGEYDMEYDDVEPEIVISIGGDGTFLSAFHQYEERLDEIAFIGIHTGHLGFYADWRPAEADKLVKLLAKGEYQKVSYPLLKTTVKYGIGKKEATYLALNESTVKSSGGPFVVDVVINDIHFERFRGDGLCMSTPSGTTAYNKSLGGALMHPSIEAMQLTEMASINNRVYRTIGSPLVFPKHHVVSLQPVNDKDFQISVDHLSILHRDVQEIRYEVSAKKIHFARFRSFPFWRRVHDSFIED

purified protein [4] = substrate: NC(=O)c1ccc[n+]([C@@H]2O[C@H](COP(=O)([O-])OP(=O)(O)OC[C@H]3O[C@@H](n4cnc5c(N)ncnc54)[C@H](O)[C@@H]3O)[C@@H](O)[C@H]2O)c1; assay: purified protein; conditions: MgATP
purified protein [5] = substrate: Nc1ncnc2c1ncn2[C@@H]1O[C@H](COP(=O)(O)OP(=O)(O)OP(=O)(O)O)[C@@H](O)[C@H]1O; assay: purified protein; conditions: Mg2+

Molecule: NC(=O)c1ccc[n+]([C@@H]2O[C@H](COP(=O)([O-])OP(=O)(O)OC[C@H]3O[C@@H](n4cnc5c(N)ncnc54)[C@H](OP(=O)(O)O)[C@@H]3O)[C@@H](O)[C@H]2O)c1 [NADP^+]
X-ray crystal structure, 2.3 Å [1]: we determined the atomic structure of the protein bound to NADP^+ by X‐ray crystallography

Ki [2]: 4.6 ± 0.3 µM
Ki [3]: 3.2 ± 0.4 µM
Molecule: NC(=O)c1cccc([C@@H]2O[C@H](COCC#Cc3nc4c(N)ncnc4n3[C@@H]3O[C@H](CO)[C@@H](O)[C@H]3O)[C@@H](O)[C@H]2O)c1 [compound 1, 5‐O ‐[3‐(adenosin‐8‐yl)prop‐2‐yn‐1‐yl]‐1‐deoxy‐1‐(3‐carbamoylphenyl)‐β‐D‐ribofuranose]

B1: PaNADK (NAD kinase from Pseudomonas aeruginosa) (Pseudomonas aeruginosa PAO1) (protein)
chain: MEPFRNIGIIGRLGSTQVLDTIRRLKKFLIDRHLHVILEDTIAEVLPGHGLQTCSRKIMGEICDLVVVVGGDGSMLGAARALARHKVPVLGINRGSLGFLTDIRPDELEAKVGEVLDGQYIVESRFLLDAQVRRGIDSMGQGDALNDVVLHPGKSTRMIEFELYIDGQFVCSQKADGLIVATPTGSTAYALSAGGPIMHPKLDAIVIVPMYPHMLSSRPIVVDGNSELKIVVSPNMQIYPQVSCDGQNHFTCAPGDTVTISKKPQKLRLIHPIDHNYYEICRTKLGWGSRLGGGD
Km (purified protein [4]): 150 µM
Km (purified protein [5]): 2000 µM
